Measurements published in ChEMBL document CHEMBL1201862, “PubChem BioAssay data set” (2004).
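Grown in 96-well plates, cells were treated for 48 hours with each compound at five concentrations. Insufficient inhibition: endpoint recorded as highest concentration tested. Here, GI50 denotes the concentration required for 50% inhibition of growth.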 Calls of active or inactive are those of the source. Rule as the data show it: active = GI50 up to about 1.1 µM and inactive = higher.

What was measured:
Assay in all cases: NCI-60 cell line screen, 48 h
[1] = system: NCI/ADR-RES
[2] = system: SNB-75
[3] = system: MDA-N
[4] = system: SF-539
[5] = system: COLO 205
[6] = system: ACHN
[7] = system: M14
[8] = system: IGROV-1
[9] = system: CAKI-1
[10] = system: OVCAR-3
[11] = system: SNB-19
[12] = system: SN12C
[13] = system: OVCAR-4
[14] = system: OVCAR-5
[15] = system: HCT-15
[16] = system: RXF 393
[17] = system: U-251
[18] = system: KM12
[19] = system: SF-268
[20] = system: PC-3
[21] = system: MDA-MB-231
[22] = system: HT-29
[23] = system: MDA-MB-435
[24] = system: EKVX
[25] = system: HCT-116
[26] = system: TK-10
[27] = system: HOP-92
[28] = system: OVCAR-8
[29] = system: NCI-H226
[30] = system: SW-620
[31] = system: DU-145
[32] = system: SF-295
[33] = system: SK-MEL-5
[34] = system: A549
[35] = system: NCI-H23
[36] = system: SK-MEL-28
[37] = system: UO-31
[38] = system: NCI-H460
[39] = system: UACC-257
[40] = system: NCI-H522
[41] = system: T47D
[42] = system: A498
[43] = system: 786-0
[44] = system: HCC 2998
[45] = system: SK-OV-3
[46] = system: CCRF-CEM
[47] = system: UACC-62
[48] = system: Hs-578T
[49] = system: HL-60
[50] = system: SK-MEL-2
[51] = system: SR
[52] = system: MOLT-4
[53] = system: RPMI-8226
[54] = system: HOP-62
[55] = system: MCF7
[56] = system: LOX IMVI
[57] = system: Malme-3M
[58] = system: K562

Structure (SMILES): COC(=O)C1ON2C(C1C(=O)OC)C(C)(C)N(O)C2(C)C (stereo unspecified)
- GI50 [1]: > 10 µM (inactive)
- GI50 [2]: > 10 µM (inactive)
- GI50 [3]: > 10 µM (inactive)
- GI50 [4]: > 10 µM (inactive)
- GI50 [5]: > 10 µM (inactive)
- GI50 [6]: > 10 µM (inactive)
- GI50 [7]: > 10 µM (inactive)
- GI50 [8]: > 10 µM (inactive)
- GI50 [9]: > 10 µM (inactive)
- GI50 [10]: > 10 µM (inactive)
- GI50 [11]: > 10 µM (inactive)
- GI50 [12]: > 10 µM (inactive)
- GI50 [13]: > 10 µM (inactive)
- GI50 [14]: > 10 µM (inactive)
- GI50 [15]: > 10 µM
- GI50 [16]: > 10 µM (inactive)
- GI50 [17]: > 10 µM (inactive)
- GI50 [18]: > 10 µM (inactive)
- GI50 [19]: > 10 µM (inactive)
- GI50 [20]: > 10 µM (inactive)
- GI50 [21]: > 10 µM (inactive)
- GI50 [22]: > 10 µM (inactive)
- GI50 [23]: > 10 µM (inactive)
- GI50 [24]: > 10 µM (inactive)
- GI50 [25]: > 10 µM (inactive)
- GI50 [26]: > 10 µM (inactive)
- GI50 [27]: > 10 µM (inactive)
- GI50 [28]: > 10 µM (inactive)
- GI50 [29]: > 10 µM (inactive)
- GI50 [30]: > 10 µM (inactive)
- GI50 [31]: > 10 µM (inactive)
- GI50 [32]: > 10 µM (inactive)
- GI50 [33]: > 10 µM (inactive)
- GI50 [34]: > 10 µM (inactive)
- GI50 [35]: > 10 µM (inactive)
- GI50 [36]: > 10 µM (inactive)

Structure (SMILES): c1csc(-c2csc(-c3cccs3)c2)c1
- GI50 [1]: > 100 µM (inactive)
- GI50 [37]: 57.8 µM (inactive)
- GI50 [2]: 50.5 µM (inactive)
- GI50 [38]: 88.3 µM (inactive)
- GI50 [4]: > 100 µM (inactive)
- GI50 [5]: 18 µM (inactive)
- GI50 [39]: 40 µM (inactive)
- GI50 [40]: 29.4 µM (inactive)
- GI50 [6]: > 100 µM (inactive)
- GI50 [7]: 58.1 µM (inactive)
- GI50 [41]: 3.2 µM (inactive)
- GI50 [8]: 78.5 µM (inactive)
- GI50 [42]: > 100 µM (inactive)
- GI50 [43]: 52.1 µM (inactive)
- GI50 [9]: 84.3 µM (inactive)
- GI50 [10]: 29.4 µM (inactive)
- GI50 [44]: 48.5 µM (inactive)
- GI50 [11]: 32.4 µM (inactive)
- GI50 [45]: 95.9 µM (inactive)
- GI50 [12]: 34.2 µM (inactive)
- GI50 [13]: 77.4 µM (inactive)
- GI50 [14]: > 100 µM (inactive)
- GI50 [15]: 27.7 µM
- GI50 [16]: 6.1 µM (inactive)
- GI50 [46]: 49.2 µM (inactive)
- GI50 [47]: 20.8 µM (inactive)
- GI50 [17]: 77.4 µM (inactive)
- GI50 [18]: 28.9 µM (inactive)
- GI50 [19]: 84.5 µM (inactive)
- GI50 [20]: 29.7 µM (inactive)
- GI50 [48]: 51.3 µM (inactive)
- GI50 [21]: > 100 µM (inactive)
- GI50 [22]: > 100 µM (inactive)
- GI50 [49]: 37.5 µM (inactive)
- GI50 [23]: 25.8 µM (inactive)
- GI50 [24]: 39.8 µM (inactive)
- GI50 [25]: 21.9 µM (inactive)
- GI50 [26]: 67.1 µM (inactive)
- GI50 [27]: 17.7 µM (inactive)
- GI50 [28]: > 100 µM (inactive)
- GI50 [30]: 35.9 µM (inactive)
- GI50 [31]: > 100 µM (inactive)
- GI50 [50]: 20.2 µM (inactive)
- GI50 [51]: 23.5 µM (inactive)
- GI50 [52]: 28.6 µM (inactive)
- GI50 [32]: 35.9 µM (inactive)
- GI50 [53]: 24.3 µM (inactive)
- GI50 [54]: 63.1 µM (inactive)
- GI50 [55]: 8.85 µM (inactive)
- GI50 [33]: 18.7 µM (inactive)
- GI50 [56]: 57.7 µM (inactive)
- GI50 [34]: 30.8 µM (inactive)
- GI50 [35]: 24.3 µM (inactive)
- GI50 [36]: > 100 µM (inactive)
- GI50 [57]: 51.8 µM (inactive)

Structure (SMILES): O=C(O)/C=C/c1ccc2c(c1)CC1(Cc3ccccc3C1)C2
- GI50 [1]: 76.7 µM (inactive)
- GI50 [37]: 80 µM (inactive)
- GI50 [3]: > 100 µM (inactive)
- GI50 [4]: 96.4 µM (inactive)
- GI50 [5]: 27.8 µM (inactive)
- GI50 [39]: > 100 µM (inactive)
- GI50 [40]: 54.5 µM (inactive)
- GI50 [6]: 41.6 µM (inactive)
- GI50 [7]: 48.1 µM (inactive)
- GI50 [41]: > 100 µM (inactive)
- GI50 [8]: 56.4 µM (inactive)
- GI50 [42]: 75.3 µM (inactive)
- GI50 [43]: > 100 µM (inactive)
- GI50 [10]: 27.7 µM (inactive)
- GI50 [44]: 93.8 µM (inactive)
- GI50 [45]: > 100 µM (inactive)
- GI50 [12]: 44.5 µM (inactive)
- GI50 [13]: 39 µM (inactive)
- GI50 [14]: > 100 µM (inactive)
- GI50 [15]: 40.3 µM
- GI50 [16]: 94 µM (inactive)
- GI50 [46]: 91.2 µM (inactive)
- GI50 [47]: > 100 µM (inactive)
- GI50 [17]: 49.5 µM (inactive)
- GI50 [18]: 55.8 µM (inactive)
- GI50 [20]: 53.6 µM (inactive)
- GI50 [48]: > 100 µM (inactive)
- GI50 [21]: > 100 µM (inactive)
- GI50 [22]: 39.8 µM (inactive)
- GI50 [49]: 37.5 µM (inactive)
- GI50 [23]: 80.5 µM (inactive)
- GI50 [24]: > 100 µM (inactive)
- GI50 [25]: 23 µM (inactive)
- GI50 [26]: > 100 µM (inactive)
- GI50 [27]: 52.2 µM (inactive)
- GI50 [28]: 66.1 µM (inactive)
- GI50 [29]: 33.7 µM (inactive)
- GI50 [50]: 39.3 µM (inactive)
- GI50 [51]: 23.2 µM (inactive)
- GI50 [52]: 29.5 µM (inactive)
- GI50 [32]: 36.1 µM (inactive)
- GI50 [53]: 96.8 µM (inactive)
- GI50 [54]: 49.5 µM (inactive)
- GI50 [58]: 47.2 µM (inactive)
- GI50 [55]: 43.6 µM (inactive)
- GI50 [33]: 43.5 µM (inactive)
- GI50 [56]: 38.1 µM (inactive)
- GI50 [34]: 34.8 µM (inactive)
- GI50 [35]: 57 µM (inactive)
- GI50 [57]: 78.2 µM (inactive)
